Active and inactive are the calls of the source. No rule for the calls is given here. *1 amine or outer side, *2 acyl side, *3 side chain or, on linkers, in order; H or OH if unused. Where a SMILES comes first, the peptide text is derived from it. [ ]: non-standard residue; d: D form. X2 = CCC[C@@H](N[*:1])[C@H](C)C(=O)O[C@H](C(=O)[*:2])[C@@H](C)CC; X1 = CC(N[*:1])C(=O)C(C)(C)C(=O)[*:2]; NMeY = CN[C@@H](Cc1ccc(O)cc1)C(=O)O; NMeL = CN[C@@H](CC(C)C)C(=O)O; NMeV = CN[C@H](C(=O)O)C(C)C; NMeA = CN[C@@H](C)C(=O)O
Test system: 697B B-cell line, NF-kB luciferase reporter luminescence
Experiment: inhibitors of B-cell NF-kB luciferase signal – 697B cells, luminescence, selectivity assay for T-cell antigen receptor NF-kB inhibitors, dose response (AID 489033)

| Compound | IC50 |
| --- | --- |
| O=[N+]([O-])c1ccc(Sc2ccc(Cl)c(Cl)c2)nc1 | 13.1 µM |
| CCN1/C(=C/c2ccc3ccccc3[n+]2CC)C=Cc2ccccc21 | 3.57 µM |
| COc1ccc([N+](=O)[O-])cc1Nc1c2ccccc2nc2ccccc12 | > 80 µM (inactive) |
| O=C(Nc1ncc(Cc2ccc(SC(F)F)cc2)s1)c1ccc(OC(F)F)cc1 | > 80 µM (inactive) |
| CC(=O)Nc1ccc(S(=O)(=O)N2CCSc3ccccc32)cc1 | > 80 µM (inactive) |
| Cc1ccc(C(=O)c2cc([N+](=O)[O-])ccc2N2CCCCC2)cc1 | > 80 µM (inactive) |
| O=C(c1ccccc1)c1nn(-c2ccc(Cl)cc2)c(=O)cc1C(F)(F)F | 6.53 µM |
| Cc1cc(C)c(CN2CCN(C(=O)Cn3cnc4c(OCc5ccccc5)ncnc43)CC2)c(C)c1 | > 80 µM (inactive) |
| Cc1nc2c(=O)n(C)c(=O)nc-2n(C)n1 | 3.36 µM |
| CCN(CC)S(=O)(=O)c1ccc(NC(=O)c2ccc(CN3CCOCC3)cc2)cc1 | 10.1 µM |
| Cc1ccc(NC(=O)C2=C(c3ccccc3)S(=O)(=O)CCS2(=O)=O)cc1 | 0.39 µM |
| COc1ccc(C2=Nn3c(nnc3-c3ccccc3OC)SC2)cc1OC1CCCC1 | 3.54 µM |
| CCCCOc1ccccc1C1CC(=O)NC2=C1C(=O)CCC2 (stereo unspecified) | > 80 µM (inactive) |
| CCOC(=O)c1[nH]c(C)c(C(=O)c2cc(F)ccc2F)c1C | > 80 µM (inactive) |
| C/C=C/COC(=O)c1[nH]c2c(c1C)C(=O)CC(c1ccco1)C2 (stereo unspecified) | > 80 µM (inactive) |
| CCOC(=O)c1[nH]c(C)c(C(=O)OCC(=O)NC(C)c2ccc(F)cc2)c1C (stereo unspecified) | > 80 µM (inactive) |
| Cc1cc(-n2c(C)cc(C(=O)CSc3ncnc4ccccc34)c2C)no1 | 67 µM (inactive) |
| Oc1ccc2ccccc2c1/C=N/Nc1nnc(-c2ncc[nH]2)c2ccccc12 | > 80 µM (inactive) |
| Cc1ccc(O)c(NC(=O)CCC2CCCCC2)c1 | > 80 µM (inactive) |
| O=C(CSc1nnc(Cn2nnc3ccccc32)o1)N(Cc1ccc(F)cc1)c1ccccc1 | 12.7 µM |
| CCC[C@H]1NC(=O)[C@H](C)N(C)C(=O)C(C)(C)C(=O)C(C)NC(=O)[C@H](Cc2ccc(OC)cc2)N(C)C(=O)[C@H](C(C)C)N(C)C(=O)CNC(=O)[C@H](CC(C)C)N(C)C(=O)CNC(=O)[C@H]([C@@H](C)CC)OC(=O)[C@H]1C (stereo partly specified) (cyclo(G[NMeL]G[NMeV][NMeY](Me)[X1][NMeA][X2])) | 29.3 µM (inactive) |
| C=C1C(O)[C@@H]2O[C@]3(CC[C@H](/C=C/C(C)[C@@H]4CC(C)=CC5(O[C@H](C[C@@](C)(O)CO)CCC5O)O4)O3)CC[C@H]2O[C@@H]1C(O)CC(C)[C@H]1OC2(CCCCO2)CCC1C (stereo partly specified) | 3.19 µM |

| Compound | IC50 |
| --- | --- |
| CCCCOc1ccc(Br)cc1/C(C)=N/NC1=NCCN1 | 28.6 µM (inactive) |
| O=C(N/N=C\c1c(O)ccc2ccccc12)c1ccc(S(=O)(=O)N2CCCCC2)cc1 | > 80 µM (inactive) |
| Cc1c(C(=O)OCc2ccccc2)[nH]c2c1C(=O)CC(c1ccco1)C2 (stereo unspecified) | > 80 µM (inactive) |
| COc1ccccc1C(=O)N(CCC1CCCN1C)c1nc2ccccc2s1 (stereo unspecified) | > 80 µM (inactive) |
| O=C(Nc1nc(-c2ccccn2)cs1)c1ccc(Cl)s1 | < 0.16 µM |
| CCOc1ccccc1NC(=O)Cn1nnc(C(=O)NCc2cccs2)c1N | > 80 µM (inactive) |
| COC(=O)[C@]12OC[C@]34C([C@@H](O)[C@@H]1O)[C@]1(C)CC(=O)C(O)=C(C)[C@@H]1C[C@H]3OC(=O)[C@H](O)[C@@H]24 (stereo partly specified) | 0.23 µM |
| CCn1ncc(C2=NOC(C(=O)NCc3ccc(Cl)cc3)C2)c1C (stereo unspecified) | > 80 µM (inactive) |
| CCOC(=O)/C=C/S(=O)(=O)c1ccc(NC(C)=O)cc1 | 0.39 µM |
| CCOC(=O)c1[nH]c(C)c(C(=O)Nc2ccccc2C)c1C | 40.3 µM (inactive) |
| COc1cccc(N/C(N)=N/c2nc(CSc3ccccn3)cc(=O)[nH]2)c1 | > 80 µM (inactive) |
| CCCCC(=O)NC(c1ccc(Cl)cc1)c1ccc2cccnc2c1O (stereo unspecified) | > 80 µM (inactive) |
| Cc1ccc(S(=O)(=O)Cc2ccc(C(=O)N3CCN(c4cccc(C)c4C)CC3)o2)cc1 | 57.9 µM (inactive) |
| Cc1cccc(N2CCN(C(=O)c3ccc(S(=O)(=O)N(C)c4ccccc4)cc3)CC2)c1C | > 80 µM (inactive) |
| O=S1(=O)C=C(Sc2nc3cc(Cl)ccc3o2)c2ccccc21 | 0.21 µM |
| COc1cc([C@@H]2c3cc4c(cc3[C@H](O)[C@H]3COC(=O)[C@H]23)OCO4)cc(OC)c1OC | > 80 µM (inactive) |
| COC(=O)c1[nH]c2c(c1C)C(=O)CC(c1cccs1)C2 (stereo unspecified) | > 80 µM (inactive) |
| CCCOc1ccc(/C=N/Nc2cc(N3CCOCC3)ncn2)c(O)c1 | 11 µM |
| Cc1ccc(C(=O)c2cc([N+](=O)[O-])ccc2N2CCCCC2)cc1C | > 80 µM (inactive) |
| N#C/C(=C\c1ccc(OCc2ccc(C(=O)O)cc2)cc1)C(=O)N1CCOCC1 | 5.92 µM |
| CCOC(=O)N=Nc1c2ccccc2c2nc3no[nH]c3nc12 | 2.28 µM |
| C=C(C)COc1ccc(-c2n[nH]c(C)c2-c2ccc(OC)c(OC)c2)c(O)c1 | 43.3 µM (inactive) |

| Compound | IC50 |
| --- | --- |
| COC(=O)c1ccc(Oc2cc(C)nc(SC)n2)cc1 | > 80 µM (inactive) |
| CN[C@H]1CCc2cc(OC)c(OC)c(OC)c2-c2ccc(OC)c(=O)cc21 | > 80 µM (inactive) |
| Cc1cccc(N2CCN(C(=O)c3c(-c4ccccc4Cl)noc3C)CC2)c1C | > 80 µM (inactive) |
| O=S(=O)(Nc1cccc2ncccc12)c1cccs1 | 0.34 µM |
| Cc1ccc(C(=O)Nc2cnc3ccccc3c2)cc1 | 7.31 µM |
| COc1ccc(CC(=O)Nc2nc(-c3ccc(F)c(F)c3)cs2)cc1OC | 57.5 µM (inactive) |
| COc1ccccc1-c1nnc2sc(-c3ccc(N(C)C)cc3)nn12 | > 80 µM (inactive) |
| Cc1ccc(NC(=O)Nc2ccnc(-c3cccnc3)n2)cc1 | 1.05 µM |
| Cn1cc(/C=N/n2cnc3scc(-c4ccc(Cl)cc4)c3c2=O)c2ccccc21 | > 80 µM (inactive) |
| CCCC1=Nc2cc(C(=O)NCCCOCC)ccc2Sc2ccccc21 | > 80 µM (inactive) |
| Cn1nc(-c2ccccn2)nc2c(=O)n(C)c(=O)nc1-2 | 4.12 µM |
| O=C(Nc1ccc(Cl)c(S(=O)(=O)N2CCOCC2)c1)c1ccc(OCC2CCCO2)cc1 (stereo unspecified) | 4.54 µM |
| Cc1cc(-c2ccc(C)c(S(=O)(=O)N3CCN(c4ccc([N+](=O)[O-])cc4)CC3)c2)on1 | > 80 µM (inactive) |
| C[C@]12CC[C@H]3[C@@H](CC[C@]4(O)C[C@@H](O)CC[C@]34C=O)[C@@]1(O)CC[C@@H]2C1=CC(=O)OC1 | 1.13 µM |
| O=C(N/N=C\c1c(O)ccc2ccccc12)c1cncc(Br)c1 | > 80 µM (inactive) |
| COc1ccc(-c2csc(NC(=O)C3CCN(c4ncnc5sc(C)c(C)c45)CC3)n2)cc1OC | 11.6 µM |
| COc1ccc(C(=O)NNC(=O)c2ccccn2)cc1 | 5.2 µM |
| c1ccc(-c2noc(-c3ccc4c(c3)OCO4)n2)nc1 | 1.27 µM |
| CC(=O)O[C@H]1C(=O)[C@@]2(C)C([C@H](OC(=O)c3ccccc3)[C@]3(O)C[C@H](OC(=O)[C@H](O)[C@@H](NC(=O)Cc4ccccc4)c4ccccc4)C(C)=C1C3(C)C)[C@]1(OC(C)=O)CO[C@@H]1C[C@@H]2O (stereo partly specified) | > 80 µM (inactive) |
| COc1cc2c(c(OC)c1OC)-c1ccc(OC)c(=O)cc1[C@@H](NC(C)=O)CC2 | > 80 µM (inactive) |
| Cc1cc(C(=O)N2CC=C(c3ccccc3)CC2)c2ccccc2n1 | > 80 µM (inactive) |
| CCC(=O)NC(c1ccc(C)cc1)c1ccc2cccnc2c1O (stereo unspecified) | > 80 µM (inactive) |

From PubChem BioAssay AID489033 (Sanford-Burnham Center for Chemical Genomics, 2010)
